Consider one molecule from patent US20260000655A1, “PHARMACEUTICAL COMPOSITION FOR USE IN PREVENTION OR TREATMENT OF LIFESTYLE-RELATED DISEASE” (priority 2022, published 2026).

In experiment [1] the test system is high-fat diet-induced obesity model mice. Put plainly: H&E staining of mouse tissue. The format is in vivo. The following applies: metformin 300 mg/kg orally 28 days; compared to control. Here is the method: High-fat diet-induced obesity model mice were prepared in the same manner as in Example 7. Note that the high-fat diet-induced obesity model mice develop liver damage and are thus used as a liver disease model. Then, HPH-15 (10 mg/kg or 100 mg/kg, […]) dissolved in olive oil or metformin (300 mg/kg, […]) was orally administered once a day for 28 days. Olive oil alone was administered as a control. After administration of each for 28 days, the liver, epididymis, and muscle of the high-fat diet-induced obesity model mice were stained with H&E and observed using a microscope. The results of H&E staining of the liver are shown in FIG. 12A, the results of H&E staining of the epididymis are shown in FIG. 12B, and the results of H&E staining of the muscle are shown in FIG. 12C.

Experiment [2] shares this test system. Put plainly: Sirius Red staining and collagen amount in mouse tissue. It is filed as in vivo. The following applies: HPH-15 10 mg/kg or 100 mg/kg, metformin 300 mg/kg, orally 28 days, Western blotting. Here is the method:
High-fat diet-induced obesity model mice were prepared in the same manner as in Example 7. Then, HPH-15 (10 mg/kg or 100 mg/kg, […]) dissolved in olive oil or metformin (300 mg/kg, […]) was orally administered once a day for 28 days. Olive oil alone was administered as a control. After 28 days of administration of each, the liver and the epididymal fat of the high-fat diet-induced obesity model mice were stained with Sirius Red and observed using a microscope.
Further, high-fat diet-induced obesity model mice were prepared in the same manner as in Example 7. Then, HPH-15 (10 mg/kg or 100 mg/kg, […]) dissolved in olive oil or metformin (300 mg/kg, […]) was orally administered once a day for 28 days. Olive oil alone was administered as a control. After 28 days of administration of each, equal amounts (50 mg) of tissue pieces were collected from the liver and epididymal adipose tissues of the high-fat diet-induced obesity model mice, transferred to 1.5 mL Eppendorf tubes, and washed twice with PBS. After washing, the tissue pieces were transferred to BIOMASHER II, […] of RIPA buffer was added, and the tissue pieces were homogenized on ice. After homogenization, the tissue pieces were centrifuged (10,000 rpm, 4° C., 5 min) and the supernatant was obtained as a protein solution. The concentration of the proteins thus obtained was corrected based on the protein concentration measured by the BCA method using bicinchoninic acid (BCA), thereby preparing samples for Western blotting. Western blotting was quantified using ImageJ to calculate the amount of collagen.
Background: Immunoblotting shows a protein as a band on a membrane.

Structures are written as SMILES.

With `CN(C)C(=N)N=C(N)N` [metformin, reference compound], the “fat area (H&E)” value in experiment [1] is reported as “only slightly reduced the fat area”. For the same molecule, in experiment [2], the “amount of collagen in the epididymal adipose tissue” value is recorded as “no collagen-reducing effect was confirmed” and the “amount of collagen in the liver tissue” value is on record as “no collagen-reducing effect was confirmed”.
